From patent US11780893B2, “Kv1.3 blockers” (Zealand Pharma A/S, priority 2019, dated 2023)
pIC50: −log10 of the molar value. Where two headings read alike, the source gives them in different places. Bridge positions count the residues as written; N and C are the ends. Square brackets hold non-standard residues; d marks the D form. Peptide text beside a SMILES is read from it. Nle = CCCC[C@H](N)C(=O)O

Key:
[1] = target: T1, human Kv1.3 voltage-gated K+ channel (Homo sapiens, UniProt P22001); assay: cell-based; conditions: inhibition of thallium flux, CHO-DUKX cells with human Kv1.3; read-out: IC50
T1 construct: host or cells: CHO-DUKX

Kv1.1 = target: T2, Kv1.1 (Homo sapiens, UniProt Q09470); assay: cell-based; conditions: for IC50: CHO cells, whole-cell patch clamp, read-out: Potency IC50 (nM) Kv1.1; for Selectivity Kv1.1/Kv1.3: ratio IC50[Kv1.1]/IC50[Kv1.3]
T2 construct: expressed in transfected cells; host or cells: Chinese Hamster Ovary (CHO)

Kv1.2 = target: T3, Kv1.2 (Homo sapiens, UniProt P16389); assay: cell-based; conditions: CHO cells, whole-cell patch clamp; read-out: Potency IC50 (nM) Kv1.2
T3 construct: expressed in transfected cells; host or cells: Chinese Hamster Ovary (CHO)

Kv1.3 = target: T4, Kv1.3 (Homo sapiens, UniProt P22001); assay: cell-based; conditions: CHO cells, whole-cell patch clamp; read-out: Potency IC50 (nM) Kv1.3
T4 construct: expressed in transfected cells; host or cells: Chinese Hamster Ovary (CHO)

Kv1.6 = target: T5, Kv1.6 (Homo sapiens, UniProt P17658); assay: cell-based; conditions: for IC50: CHO cells, whole-cell patch clamp, read-out: Potency IC50 (nM) Kv1.6; for Selectivity Kv1.6/Kv1.3: ratio IC50[Kv1.6]/IC50[Kv1.3]
T5 construct: expressed in transfected cells; host or cells: Chinese Hamster Ovary (CHO)

[2] = system: Human peripheral blood mononuclear cells (PBMCs); assay: IL-2 release from anti-CD3 stimulated human PBMCs (Example 4b); assay type: cell-based; conditions: geometric mean, at least 6 replicates, read-out: anti-CD3 PBMC/IL-2 IC50
Method: Human peripheral blood mononuclear cells (PBMCs) were used to assess the effects of Kv1.3 blockers on T-cell activation as determined by IL-2 release after stimulation with anti-CD3.
Human PBMCs were obtained from Precision for Medicine (Frederick, Md.). Cells from 5 donors were used. Plate-bound anti-CD3 was used to stimulate bulk T cells in the PBMC preparations. Briefly, 96-well plates were coated with anti-CD3 antibody for app. 16 hours at 5° C., using 50 μl of a 1 μg/ml anti-CD3 solution diluted in PBS. Thereafter the plates were washed twice.
Kv1.3 blockers were subsequently diluted in medium (RPMI 1640 with Glutamax-I containing, 10% v/v Fetal Bovine Serum, 1% v/v penicillin-streptomycin Solution) and added in a volume of 50 μl. The compounds indicated in Table 4b were used at concentrations ranging from […] to 1000 nM (half log dilutions, starting concentrations varying).
Finally, 50.000 PBMCs in the same medium were added to each well in a volume of 50 μl, giving a final volume of 100 μl per well. The plates were incubated for 20-24 hours in a 37° C./5% CO2 incubator. After centrifugation of the plates, 25 μl supernatant was transferred to IL-2 detection plates (MSD Human IL-2 Tissue Culture Kit, cat #K151AHB-2) and IL-2 was measures as described by the manufacturer (Meso Scale Discovery, Rockville, Md., USA).
Results are shown in Table 4b as geometric mean of IC50 values obtained from anti-CD3 stimulated human PBMC assays. All values derive from at least 6 replicates.

[3] = system: delayed-type hypersensitivity (DTH) ear swelling response; assay type: in vivo, rat; conditions: CsA 10 mg/kg per os, +/- SD
Rat whole blood = Rat whole blood (Rattus norvegicus, UniProt P15384)
in vivo = conditions: male, rat, sc, 70 nmol/kg
[4] = Exp #1, Kv1.3 blocker 70 nmol/kg SC 24 hrs prior to KLH challenge
[5] = Exp #2, Kv1.3 blocker 70 nmol/kg SC 24 hrs prior to KLH challenge
[6] = Exp #3, Kv1.3 blocker 50 nmol/kg SC 24 hrs prior to KLH challenge

T5 sequence (P17658 whole entry): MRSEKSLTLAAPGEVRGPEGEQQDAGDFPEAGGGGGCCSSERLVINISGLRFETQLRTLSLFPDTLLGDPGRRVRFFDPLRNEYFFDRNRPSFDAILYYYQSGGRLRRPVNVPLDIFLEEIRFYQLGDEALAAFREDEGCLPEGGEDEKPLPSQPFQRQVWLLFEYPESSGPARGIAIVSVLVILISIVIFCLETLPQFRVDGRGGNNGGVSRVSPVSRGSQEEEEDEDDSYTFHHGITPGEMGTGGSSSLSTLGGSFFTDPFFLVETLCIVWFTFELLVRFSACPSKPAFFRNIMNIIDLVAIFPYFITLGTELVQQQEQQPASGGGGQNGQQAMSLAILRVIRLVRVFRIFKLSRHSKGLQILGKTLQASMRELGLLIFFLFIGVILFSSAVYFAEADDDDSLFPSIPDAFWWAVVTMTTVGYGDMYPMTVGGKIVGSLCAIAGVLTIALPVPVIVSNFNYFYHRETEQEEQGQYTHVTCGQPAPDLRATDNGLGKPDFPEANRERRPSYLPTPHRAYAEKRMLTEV
T2 sequence (Q09470 whole entry): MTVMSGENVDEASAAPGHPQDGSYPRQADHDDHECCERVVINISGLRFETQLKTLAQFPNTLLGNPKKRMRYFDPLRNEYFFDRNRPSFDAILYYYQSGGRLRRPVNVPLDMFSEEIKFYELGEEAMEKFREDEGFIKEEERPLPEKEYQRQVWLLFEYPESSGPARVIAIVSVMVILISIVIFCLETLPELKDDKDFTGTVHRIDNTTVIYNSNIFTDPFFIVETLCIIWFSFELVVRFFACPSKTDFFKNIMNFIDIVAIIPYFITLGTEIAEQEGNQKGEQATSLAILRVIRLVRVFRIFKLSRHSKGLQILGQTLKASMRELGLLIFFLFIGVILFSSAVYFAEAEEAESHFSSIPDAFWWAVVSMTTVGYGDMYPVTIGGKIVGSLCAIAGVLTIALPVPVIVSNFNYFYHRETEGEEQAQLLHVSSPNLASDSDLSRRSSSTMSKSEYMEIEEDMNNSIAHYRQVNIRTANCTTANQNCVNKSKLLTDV
T4 sequence (P22001 whole entry): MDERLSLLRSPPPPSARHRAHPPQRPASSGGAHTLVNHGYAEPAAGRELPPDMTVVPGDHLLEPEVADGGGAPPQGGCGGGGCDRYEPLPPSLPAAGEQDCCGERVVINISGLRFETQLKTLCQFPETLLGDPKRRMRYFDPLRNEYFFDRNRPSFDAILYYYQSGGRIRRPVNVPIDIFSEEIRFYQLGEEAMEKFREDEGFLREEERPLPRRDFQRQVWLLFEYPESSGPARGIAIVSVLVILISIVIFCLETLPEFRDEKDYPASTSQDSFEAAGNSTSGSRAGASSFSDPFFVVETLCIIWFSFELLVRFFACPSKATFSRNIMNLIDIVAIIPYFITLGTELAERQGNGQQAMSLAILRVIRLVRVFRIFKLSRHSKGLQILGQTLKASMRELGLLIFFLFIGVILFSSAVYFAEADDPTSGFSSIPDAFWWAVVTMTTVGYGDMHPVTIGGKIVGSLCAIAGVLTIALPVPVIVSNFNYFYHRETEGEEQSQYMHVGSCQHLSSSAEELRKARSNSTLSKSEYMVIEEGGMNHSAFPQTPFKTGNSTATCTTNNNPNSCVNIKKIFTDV
T1 sequence (P22001 whole entry): as above
Sequence of Rat whole blood (P15384 whole entry): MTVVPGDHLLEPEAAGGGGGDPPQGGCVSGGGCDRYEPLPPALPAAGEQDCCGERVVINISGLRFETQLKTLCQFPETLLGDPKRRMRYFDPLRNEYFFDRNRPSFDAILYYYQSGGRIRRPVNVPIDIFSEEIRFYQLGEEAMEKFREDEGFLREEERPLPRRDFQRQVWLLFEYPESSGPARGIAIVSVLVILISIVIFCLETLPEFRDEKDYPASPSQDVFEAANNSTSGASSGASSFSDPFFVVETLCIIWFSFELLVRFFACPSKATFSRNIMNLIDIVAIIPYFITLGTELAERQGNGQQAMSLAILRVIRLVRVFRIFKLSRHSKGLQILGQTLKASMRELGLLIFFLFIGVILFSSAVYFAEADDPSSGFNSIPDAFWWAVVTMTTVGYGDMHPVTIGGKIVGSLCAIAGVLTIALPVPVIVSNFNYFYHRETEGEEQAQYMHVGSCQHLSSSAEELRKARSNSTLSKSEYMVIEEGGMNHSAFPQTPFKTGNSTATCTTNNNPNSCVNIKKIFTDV
T3 sequence (P16389 whole entry): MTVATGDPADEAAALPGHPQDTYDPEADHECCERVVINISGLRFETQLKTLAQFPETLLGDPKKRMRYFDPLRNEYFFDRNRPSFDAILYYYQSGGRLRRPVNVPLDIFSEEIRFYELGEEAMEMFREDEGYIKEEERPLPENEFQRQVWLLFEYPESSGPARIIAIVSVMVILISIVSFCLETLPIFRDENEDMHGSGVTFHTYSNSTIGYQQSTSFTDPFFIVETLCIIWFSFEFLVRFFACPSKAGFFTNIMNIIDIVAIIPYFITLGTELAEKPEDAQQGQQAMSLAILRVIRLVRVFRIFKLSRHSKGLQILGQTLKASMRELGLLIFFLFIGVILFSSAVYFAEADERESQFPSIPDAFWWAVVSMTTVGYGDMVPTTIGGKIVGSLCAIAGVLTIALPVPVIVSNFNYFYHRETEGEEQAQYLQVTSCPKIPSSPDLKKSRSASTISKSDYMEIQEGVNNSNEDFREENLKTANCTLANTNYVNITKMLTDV

Row | Structure (SMILES) | pIC50 [1] | IC50 (Kv1.1) [nM] | Selectivity Kv1.1/Kv1.3 (Kv1.1) | IC50 (Kv1.2) [nM] | IC50 (Kv1.3) [nM] | IC50 (Kv1.6) [nM] | Selectivity Kv1.6/Kv1.3 (Kv1.6) | pIC50 [2] | % inhibition of ear thickness (AUC of Δ ear thickness 0-48 hours) [3, 4] | % inhibition of ear thickness (AUC of Δ ear thickness 0-48 hours) [3, 5] | % inhibition of ear thickness (AUC of Δ ear thickness 0-48 hours) [3, 6] | % inhibition of ear thickness (AUC of Δ ear thickness 0-48 hours) ([3]; Exp #4, Kv1.3 blocker 100 nmol/kg SC 24 hrs prior to KLH challenge) | pIC50 (Rat whole blood) | AUC(0-inf) (in vivo) [µM·h] | Cmax (in vivo) [nM] | half-life (in vivo) [min]
1 | CCCC[C@H](NC(=O)[C@@H]1CCCN1)C(=O)N[C@@H](CC(=O)O)C(=O)N[C@@H](CCCC)C(=O)N[C@@H](CCCNC(=N)N)C(=O)N[C@H]1CSSC[C@@H]2NC(=O)[C@H](CCCCN)NC(=O)CNC(=O)[C@H](Cc3ccccc3)NC(=O)[C@H]([C@@H](C)CC)NC(=O)[C@H](CO)NC(=O)CNC(=O)[C@H]([C@@H](C)CC)NC(=O)[C@H](C)NC(=O)[C@H](CCCCN)NC(=O)[C@H](CC(C)C)NC(=O)[C@@H]3CSSC[C@@H](C(=O)N[C@@H](Cc4ccc(O)cc4)C(=O)N4CCC[C@H]4C(=O)N[C@@H](CCCNC(=N)N)C(N)=O)NC(=O)[C@H](CCCCN)NC(=O)[C@H](CSSC[C@H](NC(=O)[C@H](CCC(=O)O)NC(=O)[C@H](C(C)C)NC(=O)[C@H](CO)NC(=O)[C@H](C)NC(=O)[C@H](CO)NC1=O)C(=O)N[C@@H](CCCCN)C(=O)N[C@@H](CCC(N)=O)C(=O)N[C@@H](CCCCN)C(=O)N3)NC(=O)[C@H](CCCCN)NC(=O)[C@H](CCCCN)NC(=O)[C@H](CC(N)=O)NC(=O)[C@H](CCCC)NC2=O [Compound 41] (H-P[Nle]D[Nle]RCSASVECKQKCLKAIGSIFGKC[Nle]NKKCKCYPR-NH2; disulfide 6-27, 12-32, 16-34) | 9.82 | > 3000 | >17100 | 939 | 0.18 | > 3000 | >17100 | 10.52 | 46.9 (+/−10.9) % | 27.7 (+/−11.5) % | 22.2 (+/−11.1) % | 41.9 (+/−12.5) % | ≥ 9.00 |  |  | 
2 | CC[C@H](C)[C@@H]1NC(=O)[C@H](C)NC(=O)[C@H](CCCCN)NC(=O)[C@H](CC(C)C)NC(=O)[C@@H]2CSSC[C@@H](C(=O)N[C@@H](Cc3ccc(O)cc3)C(=O)N3CCC[C@H]3C(=O)N[C@@H](CCCNC(=N)N)C(=O)O)NC(=O)[C@H](CCCCN)NC(=O)[C@@H]3CSSC[C@H](NC(=O)[C@H](CCC(=O)O)NC(=O)[C@H](C(C)C)NC(=O)[C@H](CO)NC(=O)[C@H](C)NC(=O)[C@H](CO)NC(=O)[C@@H](NC(=O)[C@H](CCCNC(=N)N)NC(=O)[C@H](CCSC)NC(=O)[C@H](CC(=O)O)NC(=O)[C@H](CCSC)NC(=O)[C@@H](N)CC(N)=O)CSSC[C@H](NC(=O)[C@H](CCCCN)NC(=O)CNC(=O)[C@H](Cc4ccccc4)NC(=O)[C@H]([C@@H](C)CC)NC(=O)[C@H](CO)NC(=O)CNC1=O)C(=O)N[C@@H](CCSC)C(=O)N[C@@H](CC(N)=O)C(=O)N[C@@H](CCCCN)C(=O)N[C@@H](CCCCN)C(=O)N3)C(=O)N[C@@H](CCCCN)C(=O)N[C@@H](CCC(N)=O)C(=O)N[C@@H](CCCCN)C(=O)N2 [Compound 3] (H-NMDMRCSASVECKQKCLKAIGSIFGKCMNKKCKCYPR-OH; disulfide 6-27, 12-32, 16-34) | 9.52 | > 3000 | >11300 | 409 | 0.27 | > 3000 | >11300 | 10.22 | 38.8 (+/−9.7) % | 25.0 (+/−12.5) % | 37.3 (+/−13.8) % |  | ≥ 9.00 | 0.0839 | 36.9 | 59.4
